Assay results reported in patent US20230270824A1, “INTERFERON-BASED CANCER TREATMENT METHOD AND PHARMACEUTICAL COMPOSITION” (XIAMEN AMOYTOP BIOTECH CO., LTD., priority 2019, published 2023).
Where two headings read alike, the source gives them in different places.

Tests used:
[1] = system: transplanted liver cancer H22; experiment: Interferon combined with gemcitabine, transplanted liver cancer H22 in mice (Example 5); type: in vivo, BALB/c mice; conditions: gemcitabine only, 60 mg/kg i.p. once a week, 108 days observation
Description: (§1) In this example, a comparative study on the efficacy of PEG-mIFN-α4 intermittent administration (once every 48 hours for three consecutive times, then drug withdrawal for 144 hours; for 8 rounds), PEG-mIFN-α4 continuous administration (once every 48 hours for 42 consecutive times), PEG-mIFN-α4 in combination with gemcitabine (PEG-mIFN-α4: once every 48 hours for three consecutive times, then drug withdrawal for 240 hours, 6 rounds; gemcitabine: once a week) on H22 transplanted liver cancer in mice was performed.
(§2) On the day when the tumor was inoculated, they were randomly divided into PEG-mIFN-α4 continuous administration group (N=24, female 12, male 12), PEG-mIFN-α4 intermittent administration group (N=24, female 12, male 12), the normal saline control group (N=24, female 12, male 12), the gemcitabine only group (N=24, female 12, male 12), and PEG-mIFN-α4 combined with gemcitabine group (N=24, female 12, male 12).
Gemcitabine was injected intraperitoneally, 60 mg/kg.
For the PEG-mIFN-α4 intermittent administration group, PEG-mIFN-α4 was administered once every 48 hours for three consecutive times, then drug withdrawal for 144 hours; for 8 rounds. For the PEG-mIFN-α4 continuous administration group, PEG-mIFN-α4 was administered once every 48 hours. For the PEG-mIFN-α4 combined with gemcitabine group, PEG-mIFN-α4 was administered once every 48 hours for three consecutive times, then drug withdrawal for 240 hours; for 6 rounds; and gemcitabine was administered once a week. For the gemcitabine only group, gemcitabine was administered once a week. For the saline control group, equal volume of saline was administered.
(§3) Survival analysis was performed for all groups to compare the differences between groups.

[2] = system: transplanted colorectal cancer CT26; experiment: Interferon combined with gemcitabine, transplanted colorectal cancer CT26 in mice (Example 7); type: in vivo, BALB/c mice; conditions: gemcitabine only, 60 mg/kg i.p. once a week, 110 days observation, 60 mg/kg
Description: as §1, with “for 11” for “for 8”, “for 55” for “for 42”, “hours, 8” for “hours, 6”, “on” for “on H22”, “transplanted colorectal” for “transplanted liver”, “cancer CT26” for “cancer”
The anticancer agent is Gemcitabine (Jiangsu HAOSEN Pharmaceutical).
as §2
Gemcitabine was injected intraperitoneally, 60 mg/kg. […] For the PEG-mIFN-α4 intermittent administration group, PEG-mIFN-α4 was administered once every 48 hours for three consecutive times, then drug withdrawal for 144 hours; for 11 rounds. For the PEG-mIFN-α4 continuous administration group, PEG-mIFN-α4 was administered once every 48 hours. For the PEG-mIFN-α4 combined with gemcitabine group, PEG-mIFN-α4 was administered once every 48 hours for three consecutive times, then drug withdrawal for 240 hours; for 8 rounds; and gemcitabine was administered once a week. For the gemcitabine only group, gemcitabine was administered once a week. For the saline control group, equal volume of saline was administered.
as §3

[3] = system: transplanted melanoma B16; experiment: Interferon combined with gemcitabine, transplanted melanoma B16 in mice (Example 8); type: in vivo, C57BL/6N mice; conditions: gemcitabine only, 60 mg/kg i.p. once a week, 48 days after tumor inoculation, 60 mg/kg
Description: In this example, a comparative study on the efficacy of PEG-mIFN-α4 intermittent administration (once every 48 hours for 3 consecutive times, then drug withdrawal for 240 hours; for 4 rounds), PEG-mIFN-α4 continuous administration (once every 48 hours for 24 consecutive times), PEG-mIFN-α4 in combination with gemcitabine (PEG-mIFN-α4: once every 48 hours for 3 consecutive times, then drug withdrawal for 240 hours, 4 rounds; gemcitabine: once a week) on transplanted melanoma B16 in mice was performed.
as §2, with “(N=28,” for “(N=24,”, “14,” for “12,”, “14),” for “12),”, “14).” for “12).”
For the PEG-mIFN-α4 intermittent administration group, PEG-mIFN-α4 was administered once every 48 hours for 3 consecutive times, then drug withdrawal for 240 hours; for 4 rounds. For the PEG-mIFN-α4 continuous administration group, PEG-mIFN-α4 was administered once every 48 hours. For the PEG-mIFN-α4 combined with gemcitabine group, PEG-mIFN-α4 was administered once every 48 hours for 3 consecutive times, then drug withdrawal for 240 hours; for 4 rounds; and gemcitabine was administered once a week. For the gemcitabine only group, gemcitabine was administered once a week. For the saline control group, equal volume of saline was administered. Gemcitabine was injected intraperitoneally, 60 mg/kg.
(§4) SAS9.4 software was used for comparing the difference in mortality, and the statistical tests were all two-sided tests.

[4] = system: transplanted lung cancer LLC; experiment: Interferon combined with gemcitabine, transplanted lung cancer LLC in mice (Example 6); type: in vivo, C57BL/6N mice; conditions: gemcitabine only, 60 mg/kg i.p. once a week, Day 64 post tumor inoculation, 60 mg/kg
Description: In this example, a comparative study on the efficacy of PEG-mIFN-α4 intermittent administration (once every 48 hours for four consecutive times, then drug withdrawal for 192 hours; for 5 rounds), PEG-mIFN-α4 continuous administration (once every 48 hours for 32 consecutive times), PEG-mIFN-α4 in combination with gemcitabine (PEG-mIFN-α4: once every 48 hours for four consecutive times, then drug withdrawal for 360 hours, 4 rounds; gemcitabine: once a week) on transplanted […] LLC in mice was performed.
as §2, with “(N=26,” for “(N=24,”, “13,” for “12,”, “13),” for “12),”, “13).” for “12).”
For the PEG-mIFN-α4 intermittent administration group, PEG-mIFN-α4 was administered once every 48 hours for 4 consecutive times, then drug withdrawal for 192 hours; for […]. For the PEG-mIFN-α4 continuous administration group, PEG-mIFN-α4 was administered once every 48 hours. For the PEG-mIFN-α4 combined with gemcitabine group, PEG-mIFN-α4 was administered once every 48 hours for 4 consecutive times, then drug withdrawal for 360 hours; for 4 rounds; and gemcitabine was administered once a week. For the gemcitabine only group, gemcitabine was administered once a week. For the saline control group, equal volume of saline was administered. Gemcitabine was injected intraperitoneally, 60 mg/kg.
as §4

[5] = system: transplanted breast cancer 4T1; experiment: Interferon combined with gemcitabine, transplanted breast cancer 4T1 in mice (Example 9); type: in vivo, BALB/c mice; conditions: gemcitabine only, 60 mg/kg i.p. once a week, 53 days after tumor inoculation, 60 mg/kg
Description: In this example, a comparative study on the efficacy of PEG-mIFN-α4 intermittent administration (once every 48 hours for 3 consecutive times, then drug withdrawal for 144 hours; for 5 rounds), PEG-mIFN-α4 continuous administration (once every 48 hours for 25 consecutive times), PEG-mIFN-α4 in combination with gemcitabine (PEG-mIFN-α4: once every 48 hours for 3 consecutive times, then drug withdrawal for 240 hours, 4 rounds; gemcitabine: once a week) on transplanted breast cancer 4T1 in mice was performed.
as §2
For the PEG-mIFN-α4 intermittent administration group, PEG-mIFN-α4 was administered once every 48 hours for 3 consecutive times, then drug withdrawal for 144 hours; for 5 rounds. For the PEG-mIFN-α4 continuous administration group, PEG-mIFN-α4 was administered once every 48 hours. For the PEG-mIFN-α4 combined with gemcitabine group, PEG-mIFN-α4 was administered once every 48 hours for 3 consecutive times, then drug withdrawal for 240 hours; for 4 rounds; and gemcitabine was administered once a week. For the gemcitabine only group, gemcitabine was administered once a week. For the saline control group, equal volume of saline was administered. Gemcitabine was injected intraperitoneally, 60 mg/kg.
as §4

[6] = system: transplanted liver cancer H22; experiment: Interferon combined with epirubicin, transplanted liver cancer H22 in mice (Example 10); type: in vivo, BALB/c mice; conditions: epirubicin only, 3.5 mg/kg/w i.p.
Text: The manufacturer of epirubicin was Beijing Union Pharmaceutical Factory.
Statistical tests were all two-sided tests.

[7] = system: transplanted liver cancer H22; conditions: oxaliplatin only, 10 mg/kg/w i.p.
Description: 6-8 weeks old, 18-22 g SPF grade BALB/c mice were subcutaneously inoculated with liver cancer H22 tumor cells (1×10^6 cells/mL, 0.2 ml/mouse) in the right forelimb axillary. 3 days after tumor inoculation, they were randomly divided into groups, with 28 mice in each group (fifty-fifty female and male mice), including normal saline control group, oxaliplatin only group, and PEG-mIFN-α4 combined with oxaliplatin group.
The administration was started on the day after grouping, once a week. PEG-mIFN-α4 was injected subcutaneously on the back of the neck, and oxaliplatin was injected intraperitoneally, in a dose of 10 mg/kg each time. The normal saline control group was administered an equal volume of normal saline.
All groups were subjected to survival curve analysis, and the median survival time was compared.

[8] = system: transplanted liver cancer H22; conditions: paclitaxel only, 10 mg/kg/w
Description: In this example, BALB/c mice were purchased from Beijing Vital River Laboratory Animal Technology Co., Ltd., and the H22 mouse liver cancer cell line was purchased from the China Center for Type Culture Collection (CCTCC). The manufacturer of paclitaxel was Qilu Pharmaceutical (Hainan) Co., Ltd.
6-8 weeks old, 18-22 g SPF grade BALB/c mice were subcutaneously inoculated with liver cancer H22 tumor cells (1×10^6 cells/mL, 0.2 ml/mouse) in the right forelimb axillary. 3 days after tumor inoculation, they were randomly divided into groups, with 28 mice in each group (fifty-fifty female and male mice), including normal saline control group, paclitaxel only group, and PEG-mIFN-α4 combined with paclitaxel group.
The administration was started on the day after grouping, once a week. PEG-mIFN-α4 was injected subcutaneously on the back of the neck, in a dose of 1 mg/mouse each time, and oxaliplatin was injected intraperitoneally, in a dose of 10 mg/kg each time.
All groups were subjected to survival curve analysis, and the median survival time was compared. SAS 9.4 and office2010 software were used for statistical analysis. Statistical tests were all two-sided tests.

[9] = system: mouse fibroblast/encephalomyocarditis virus (L929/EMCV); experiment: Specific activity by mouse fibroblast/encephalomyocarditis virus (L929/EMCV) cytopathic inhibition method; type: cell-based; conditions: stock solution; commercial mIFN-α4 (R&D) as the standard
Description: (§5) The bacterial endotoxin content of the deglycosylated mIFN-α4 stock solution was determined by the Limulus reagent method as lower than 60 EU/mg. specific activity was determined as 5.4×10^8 U/mg by using the commercial mIFN-α4 (R&D, catalog number 12115-1) as the standard, and by using the mouse fibroblast/encephalomyocarditis virus (L929/EMCV) cytopathic inhibition method.
as §5, with “PEG-mIFN-α4” for “deglycosylated mIFN-α4”, “15” for “60”, “Specific” for “specific”, “6.1×10^6” for “5.4×10^8”

Nc1ccn([C@@H]2O[C@H](CO)[C@@H](O)C2(F)F)c(=O)n1 [Gemcitabine, reference compound]
Mean survival period (days post tumor inoculation) [1]: 58.5 days | Mean survival period (days post tumor inoculation) [2]: 99.0 days | Mean survival period (days post tumor inoculation) ([2]; listed as gemcitabine): 89.0 days | Mortality [3]: 89.3% | Mortality ([3]; listed as gemcitabine): 89.3% | Mortality [4]: 80.8% | Mortality ([4]; listed as gemcitabine): 80.8% | Mortality [5]: 87.5% | Mortality ([5]; listed as gemcitabine): 87.5%

COc1cccc2c1C(=O)c1c(O)c3c(c(O)c1C2=O)C[C@@](O)(C(=O)CO)C[C@@H]3O[C@H]1C[C@H](N)[C@@H](O)[C@H](C)O1 [Epirubicin]
Median survival period (Time after tumor inoculation, days) [6]: 15.0 days | Median survival period (Time after tumor inoculation, days) ([6]; listed as epirubicin): 15 days

O=C1[O][Pt]2([NH][C@@H]3CCCC[C@H]3[NH]2)[O]C1=O [Oxaliplatin]
Median survival period (Time after tumor inoculation, days) [7]: 12.5 days

CC(=O)O[C@H]1C(=O)[C@@]2(C)[C@H]([C@H](OC(=O)c3ccccc3)[C@]3(O)C[C@H](OC(=O)[C@H](O)[C@@H](NC(=O)c4ccccc4)c4ccccc4)C(C)=C1C3(C)C)[C@]1(OC(C)=O)CO[C@@H]1C[C@@H]2O [Paclitaxel]
Median survival period (Time after tumor inoculation, days) [8]: 17.0 days | Median survival period (Time after tumor inoculation, days) ([8]; listed as paclitaxel): 17 days

B1: deglycosylated mIFN-α4: recombinant mouse interferon α4 (GenBank NP_034634) expressed in Pichia pastoris, glycosyl groups removed by glycosidase (protein, UniProt P07351 25-186, looked up)
Interferon alpha-4: CDLPHTYNLGNKRALTVLEEMRRLPPLSCLKDRKDFGFPLEKVDNQQIQKAQAILVLRDLTQQILNLFTSKDLSATWNATLLDSFCNDLHQQLNDLKACVMQEPPLTQEDSLLAVRTYFHRITVYLRKKKHSLCAWEVIRAEVWRALSSSTNLLARLSEEKE
modifications: deglycosylated
notes: recombinant mouse interferon α4 (GenBank NP_034634) expressed in Pichia pastoris, glycosyl groups removed by glycosidase
Specific activity [9]: 5.4×10^8 U/mg
